In patent US6689759B1, “Methods of Treating hepatitis virus infections with N-substituted-1,5-dideoxy-1,5-imino-d-glucitol compounds in combination therapy” (G. D. Searle & Co., priority 2000, dated 2004):

How the values were obtained:
Hepatitis B virus = settings: literature; cited from earlier work
[1] = HIV infected patients; cited from earlier work
[2] = system: woodchuck hepatitis virus (WHV); assay: Woodchuck model, N-nonyl-DNJ monotherapy, BID oral dosing, total HBV DNA and IPDNA; format: in vivo
Method: Therefore, five groups of four animals each (all groups had both sexes, all but the control had two of each sex) were assigned to 0, 12.5, 25, 50, and 100 mg/kg/day with BID oral dosing. These were lab-reared wild animals. All animals were infected with woodchuck hepatitis virus (WHV) as neonates, and had been tested positive on serological tests for WHV surface antigen. Blood samples were drawn one week prior to dosing (−1 week), immediately before dosing (0 weeks), weekly during dosing (1, 2, 3, and 4 weeks), and after the end of dosing (5, 6, 8, and 10 weeks).
(§1) There are two measures of drug efficacy: reduction in total HBV DNA (measured by quantitative PCR), and reduction in HBV DNA from capsids with intact surface glycoproteins, which is the active form of the virus (measured by an ELISA-like immune precipitation assay followed by quantitative PCR).
Before models are fitted to the data, a log transform was applied because: 1) the variation in IPDNA increases with increasing IPDNA values; the log transformation gives values with a nearly constant variation, and 2) it is expected that drug effects will appear as a constant multiplier of the IPDNA level. Because there are zero values of IPDNA, a small value (about ½ of the smallest non-zero value) was added to all values before the log transform.
Two approaches were used to model the changes in slope to week with dose of N-nonyl-DNJ: a linear modeling approach and a nonlinear model. Both approaches assume that the (linear) rate of change of the Log(IPDNA) measure over the dosing period is the “right” measure to reflect the effect of the drug on the virus. Both approaches are fit in stages, and the first stage is common to both approaches. First, a simple straight line regression model is fit using weeks 0-4 to predict log(IPDNA+10) separately for each animal by run combination. In the second stage, the response variable is the slope fitted in the first stage.
For the linear approach, a model is fit with slope to week as the response where run is considered a block, dose has a significant effect (almost all of this effect is due to a slope to dose), and the relevant error for testing the effect of dose is the variation among animals treated alike (after the adjustment for the runs as blocks). This is similar to using the calibration data within each run to first adjust each run's data to a common virus DNA concentration; the difference is that here the data from the woodchucks are used for the run adjustment rather than only the calibration data.
For the nonlinear approach, a four parameter logistic model is fit with the slope to week as the response and the dose as the predictor. Again, run is considered a block, but because no run has all weeks, it is not possible to fully reflect the blocking in the nonlinear approach. […] The average maximum slope observed was 2.71 additional Log(IPDNA μg/mL)/week, or an increase of about 150%/week, the average minimum slope observed with N-nonyl-DNJ is 0.31 fewer Log(IPDNA μg/mL)/week), or about a decrease of about 25%/week. The slopes, the fitted model, the parameter estimates from the-model, and the approximate standard errors for these parameters are all shown in FIG. 3. […] Whether in woodchucks or humans, the effective dose of both the N-alkyl-DNJ and nucleoside or nucleotide antiviral agent administered in combination therewith can be administered in two equal daily subdoses (i.e., B.I.D.).

HBV DNA = assay: Cell culture experiments with N-nonyl-DNJ: total HBV DNA and immune precipitated DNA (IPDNA); format: cell-based
From the text: as §1

[3] = in vivo; cited from earlier work

Compound: CCCCN1C[C@H](O)[C@@H](O)[C@H](O)[C@H]1CO [n-butyl-DNJ, N-butyl-1-5-dideoxy-1,5-imino-D-glucitol]
- usefulness against Hepatitis B infection (Hepatitis B virus): effective
- tolerability [1]: well tolerated

Compound: CCCCCCCCCN1C[C@H](O)[C@@H](O)[C@H](O)[C@H]1CO [N-nonyl-DNJ, N-(n-nonyl-)-1,5-dideoxy-1,5-imino-D-glucitol]
- average maximum slope observed ([2]; additional Log(IPDNA)/week, i.e. an increase, low dose end of the model): 2.71 Log(IPDNA μg/mL)/week
- average minimum slope observed ([2]; fewer Log(IPDNA)/week, i.e. a decrease): 0.31 Log(IPDNA μg/mL)/week
- EC50 ([2]; four parameter logistic model, slope of Log(IPDNA+10) to week versus dose): 7.88 mg/kg/BID dose
- decrease of IPDNA at the average minimum slope ([2]; in vivo): about 25 %/week
- increase of IPDNA at the average maximum slope ([2]; low dose end of the model): about 150 %/week
- effect on total HBV DNA measurements ([2]; woodchuck, all dose levels, quantitative PCR): no effect
- slope of IPDNA over weeks 0-4 ([2]; woodchuck, change in slope statistically significant (p<0.005)): generally increasing for low dose animals and decreasing for high dose animals
- approximate effective monotherapy dose ([2]; woodchucks): about 16 mg/kg/day
- effect on immune precipitated DNA (IPDNA) (HBV DNA): marked effect
- effect on total HBV DNA (HBV DNA): little or no effect

Compound: Cc1cn([C@H]2C[C@H](N=[N+]=[N-])[C@@H](CO)O2)c(=O)[nH]c1=O [zidovudine, 3′-azido-3′-deoxythymidine, reference compound]
- usefulness against Hepatitis B infection (Hepatitis B virus): appears to have little use against the same virus

Compound: O=c1[nH]c(=O)n([C@@H]2O[C@H](CO)[C@@H](O)[C@@H]2F)cc1I [fialuridine]
- toxicity [3]: drug-related liver failure leading to death in some patients
